Results from PubChem BioAssay AID1918947 (Molecular Pharmacology Branch, DTP, NCI, 2023).
Where “and” joins values, the source holds several entries; their conditions need not be identical. Identical values can stand only once. Each block holds one molecule with its values, some of them ahead of it.

System: A498 complex spheroid viability
Assay: Anticancer human tumor A498 cell line growth inhibition;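 also: spheroids exposed to agents for seven days before readout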;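 as to viability, T/C: 100% = DMSO vehicle-treated spheroids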
Conditions: for viability, T/C: stronger effect = lower value
Method in brief: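 Drug combinations with the LSD1 inhibitor iadademstat tested on tumor cells co-cultured as spheroids with endothelial cells and mesenchymal stem cells. Concentrations descended in half-log increments from clinical Cmax or 10 microM.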

[1] = curve of first compound, second compound 0.1 µM
[2] = curve of first compound, second compound 0.316 µM
[3] = curve of first compound, second compound 1 µM
[4] = curve of first compound, second compound 3.16 µM
[5] = curve of first compound, second compound 10 µM
[6] = second compound 0.1 µM, first compound 0.0316 µM
[7] = second compound 0.1 µM, first compound 0.1 µM
[8] = second compound 0.1 µM, first compound 0.316 µM
[9] = second compound 0.1 µM, first compound 1 µM
[10] = second compound 0.1 µM, first compound 3.16 µM
[11] = second compound 0.1 µM, first compound 10 µM
[12] = second compound 0.316 µM, first compound 0.0316 µM
[13] = second compound 0.316 µM, first compound 0.1 µM
[14] = second compound 0.316 µM, first compound 0.316 µM
[15] = second compound 0.316 µM, first compound 1 µM
[16] = second compound 0.316 µM, first compound 3.16 µM
[17] = second compound 0.316 µM, first compound 10 µM
[18] = second compound 1 µM, first compound 0.0316 µM
[19] = second compound 1 µM, first compound 0.1 µM
[20] = second compound 1 µM, first compound 0.316 µM
[21] = second compound 1 µM, first compound 1 µM
[22] = second compound 1 µM, first compound 3.16 µM
[23] = second compound 1 µM, first compound 10 µM
[24] = second compound 3.16 µM, first compound 0.0316 µM
[25] = second compound 3.16 µM, first compound 0.1 µM
[26] = second compound 3.16 µM, first compound 0.316 µM
[27] = second compound 3.16 µM, first compound 1 µM
[28] = second compound 3.16 µM, first compound 3.16 µM
[29] = second compound 3.16 µM, first compound 10 µM
[30] = second compound 10 µM, first compound 0.0316 µM
[31] = second compound 10 µM, first compound 0.1 µM
[32] = second compound 10 µM, first compound 0.316 µM
[33] = second compound 10 µM, first compound 1 µM
[34] = second compound 10 µM, first compound 3.16 µM
[35] = second compound 10 µM, first compound 10 µM

SMILES: CC1COCCN1c1cc(C2(S(C)(=N)=O)CC2)nc(-c2ccnc3[nH]ccc23)n1 (stereo not drawn) + NC1CC1c1ccc(-c2cccc(O)c2)cc1
- IC50 [1]: 0.409 µM
- IC50 [2]: 0.509 µM
- IC50 [3]: 0.552 µM
- IC50 [4]: 0.503 µM
- IC50 [5]: 0.539 µM
- viability, T/C [6]: 92%
- viability, T/C [7]: 85.2%
- viability, T/C [8]: 55.2%
- viability, T/C [9]: 28%
- viability, T/C [10]: 16.1%
- viability, T/C [11]: 11.5%
- viability, T/C [12]: 97.8%
- viability, T/C [13]: 96.8%
- viability, T/C [14]: 68.4%
- viability, T/C [15]: 23.9%
- viability, T/C [16]: 16.7%
- viability, T/C [17]: 15.6%
- viability, T/C [18]: 86.7%
- viability, T/C [19]: 94%
- viability, T/C [20]: 69.9%
- viability, T/C [21]: 28%
- viability, T/C [22]: 15.1%
- viability, T/C [23]: 10.6%
- viability, T/C [24]: 85.2%
- viability, T/C [25]: 87.9%
- viability, T/C [26]: 63.9%
- viability, T/C [27]: 28.1%
- viability, T/C [28]: 16.8%
- viability, T/C [29]: 11.2%
- viability, T/C [30]: 89.7%
- viability, T/C [31]: 84.8%
- viability, T/C [32]: 63%
- viability, T/C [33]: 34%
- viability, T/C [34]: 17.8%
- viability, T/C [35]: 10.1%

- IC50 (curve of compound): 0.342 µM and 0.416 µM
SMILES: Nc1ccccc1NC(=O)c1ccc(CNC(=O)OCc2cccnc2)cc1
- viability, T/C (compound 0.00949 µM): 91.2% and 95%
- viability, T/C (compound 0.03 µM): 84.3% and 96.3%
- viability, T/C (compound 0.0949 µM): 81.4% and 80.8%
- viability, T/C (compound 0.3 µM): 53.1% and 62%
- viability, T/C (compound 0.949 µM): 19.8% and 24.2%
- viability, T/C (compound 3 µM): 1.79% and 6.46%

SMILES: Nc1ccn(C2OC(CO)C(O)C2(F)F)c(=O)n1 (stereo not drawn) + NC1CC1c1ccc(-c2cccc(O)c2)cc1
- IC50 [1]: < 0.000949 µM
- IC50 [2]: < 0.000949 µM
- IC50 [3]: < 0.000949 µM
- IC50 [4]: < 0.000949 µM
- IC50 [5]: < 0.000949 µM
- viability, T/C (second compound 0.1 µM, first compound 0.000949 µM): 20.6%
- viability, T/C (second compound 0.1 µM, first compound 0.003 µM): 28.4%
- viability, T/C (second compound 0.1 µM, first compound 0.00949 µM): 98.4%
- viability, T/C (second compound 0.1 µM, first compound 0.03 µM): 36.4%
- viability, T/C (second compound 0.1 µM, first compound 0.0949 µM): 35.8%
- viability, T/C (second compound 0.1 µM, first compound 0.3 µM): 31.5%
- viability, T/C (second compound 0.316 µM, first compound 0.000949 µM): 22.6%
- viability, T/C (second compound 0.316 µM, first compound 0.003 µM): 28.6%
- viability, T/C (second compound 0.316 µM, first compound 0.00949 µM): 112%
- viability, T/C (second compound 0.316 µM, first compound 0.03 µM): 33.9%
- viability, T/C (second compound 0.316 µM, first compound 0.0949 µM): 35.3%
- viability, T/C (second compound 0.316 µM, first compound 0.3 µM): 32.3%
- viability, T/C (second compound 1 µM, first compound 0.000949 µM): 22.5%
- viability, T/C (second compound 1 µM, first compound 0.003 µM): 26.8%
- viability, T/C (second compound 1 µM, first compound 0.00949 µM): 105%
- viability, T/C (second compound 1 µM, first compound 0.03 µM): 35.5%
- viability, T/C (second compound 1 µM, first compound 0.0949 µM): 29.3%
- viability, T/C (second compound 1 µM, first compound 0.3 µM): 30.6%
- viability, T/C (second compound 3.16 µM, first compound 0.000949 µM): 22.6%
- viability, T/C (second compound 3.16 µM, first compound 0.003 µM): 28.3%
- viability, T/C (second compound 3.16 µM, first compound 0.00949 µM): 94.6%
- viability, T/C (second compound 3.16 µM, first compound 0.03 µM): 36.1%
- viability, T/C (second compound 3.16 µM, first compound 0.0949 µM): 30.3%
- viability, T/C (second compound 3.16 µM, first compound 0.3 µM): 28.1%
- viability, T/C (second compound 10 µM, first compound 0.000949 µM): 23.5%
- viability, T/C (second compound 10 µM, first compound 0.003 µM): 28.2%
- viability, T/C (second compound 10 µM, first compound 0.00949 µM): 93.5%
- viability, T/C (second compound 10 µM, first compound 0.03 µM): 40.7%
- viability, T/C (second compound 10 µM, first compound 0.0949 µM): 32.9%
- viability, T/C (second compound 10 µM, first compound 0.3 µM): 29.4%

SMILES: CC1COCCN1c1cc(C2(S(C)(=N)=O)CC2)nc(-c2ccnc3[nH]ccc23)n1 (stereo not drawn) + NC1CCC(NC2CC2c2ccccc2)CC1
- IC50 [1]: 0.648 µM
- IC50 [2]: 0.784 µM
- IC50 [3]: 0.677 µM
- IC50 [4]: 0.59 µM
- IC50 [5]: 0.507 µM
- viability, T/C [6]: 91.8%
- viability, T/C [7]: 89%
- viability, T/C [8]: 70.7%
- viability, T/C [9]: 37.2%
- viability, T/C [10]: 18.2%
- viability, T/C [11]: 12%
- viability, T/C [12]: 99%
- viability, T/C [13]: 96.9%
- viability, T/C [14]: 82.8%
- viability, T/C [15]: 40.6%
- viability, T/C [16]: 18.9%
- viability, T/C [17]: 11.2%
- viability, T/C [18]: 86.8%
- viability, T/C [19]: 94%
- viability, T/C [20]: 72.4%
- viability, T/C [21]: 37.6%
- viability, T/C [22]: 19.6%
- viability, T/C [23]: 11.4%
- viability, T/C [24]: 81.3%
- viability, T/C [25]: 85.6%
- viability, T/C [26]: 69.7%
- viability, T/C [27]: 32.7%
- viability, T/C [28]: 17.6%
- viability, T/C [29]: 12.3%
- viability, T/C [30]: 76.6%
- viability, T/C [31]: 75.9%
- viability, T/C [32]: 60.8%
- viability, T/C [33]: 33.9%
- viability, T/C [34]: 17.9%
- viability, T/C [35]: 12.8%

- IC50 (curve of compound): 0.0392 µM and 0.0453 µM
SMILES: NS(=O)(=O)OCC1CC(n2ccc3c(NC4CCc5ccccc54)ncnc32)CC1O (stereo not drawn)
- viability, T/C (compound 0.00949 µM): 81% and 90.7%
- viability, T/C (compound 0.03 µM): 57.2% and 60.5%
- viability, T/C (compound 0.0949 µM): 27.1% and 30.7%
- viability, T/C (compound 0.3 µM): 18.4% and 21.2%
- viability, T/C (compound 0.949 µM): 12.2% and 15.6%
- viability, T/C (compound 3 µM): 9.37% and 11.7%

SMILES: CC[C@@]1(O)C(=O)OCc2c1cc1n(c2=O)Cc2cc3c(CN(C)C)c(O)ccc3nc2-1 + NC1CC1c1ccc(-c2cccc(O)c2)cc1
- IC50 [1]: 0.0425 µM
- IC50 [2]: 0.0437 µM
- IC50 [3]: 0.0378 µM
- IC50 [4]: 0.0302 µM
- IC50 [5]: 0.0261 µM
- viability, T/C (second compound 0.1 µM, first compound 0.000316 µM): 105%
- viability, T/C (second compound 0.1 µM, first compound 0.001 µM): 106%
- viability, T/C (second compound 0.1 µM, first compound 0.00316 µM): 79.1%
- viability, T/C (second compound 0.1 µM, first compound 0.01 µM): 76.4%
- viability, T/C [6]: 60.6%
- viability, T/C [7]: 29.8%
- viability, T/C (second compound 0.316 µM, first compound 0.000316 µM): 110%
- viability, T/C (second compound 0.316 µM, first compound 0.001 µM): 103%
- viability, T/C (second compound 0.316 µM, first compound 0.00316 µM): 82.2%
- viability, T/C (second compound 0.316 µM, first compound 0.01 µM): 73.1%
- viability, T/C [12]: 59.6%
- viability, T/C [13]: 33.8%
- viability, T/C (second compound 1 µM, first compound 0.000316 µM): 102%
- viability, T/C (second compound 1 µM, first compound 0.001 µM): 103%
- viability, T/C (second compound 1 µM, first compound 0.00316 µM): 86.5%
- viability, T/C (second compound 1 µM, first compound 0.01 µM): 69.4%
- viability, T/C [18]: 55.8%
- viability, T/C [19]: 32.9%
- viability, T/C (second compound 3.16 µM, first compound 0.000316 µM): 104%
- viability, T/C (second compound 3.16 µM, first compound 0.001 µM): 95.4%
- viability, T/C (second compound 3.16 µM, first compound 0.00316 µM): 74.6%
- viability, T/C (second compound 3.16 µM, first compound 0.01 µM): 60.5%
- viability, T/C [24]: 58.8%
- viability, T/C [25]: 29.5%
- viability, T/C (second compound 10 µM, first compound 0.000316 µM): 103%
- viability, T/C (second compound 10 µM, first compound 0.001 µM): 92.4%
- viability, T/C (second compound 10 µM, first compound 0.00316 µM): 75.8%
- viability, T/C (second compound 10 µM, first compound 0.01 µM): 65.5%
- viability, T/C [30]: 49%
- viability, T/C [31]: 27.7%

- IC50 (curve of compound): > 0.1 µM
SMILES: Cn1ncnc1C1c2n[nH]c(=O)c3cc(F)cc(c23)NC1c1ccc(F)cc1 (stereo not drawn)
- viability, T/C (compound 0.000316 µM): 98.4% and 110%
- viability, T/C (compound 0.001 µM): 99.4% and 107%
- viability, T/C (compound 0.00316 µM): 97.5% and 102%
- viability, T/C (compound 0.01 µM): 106% and 103%
- viability, T/C (compound 0.0316 µM): 95% and 99%
- viability, T/C (compound 0.1 µM): 101% and 94.5%

- IC50 (curve of compound): > 1 µM
SMILES: Nc1ncn(C2CC(O)C(CO)O2)c(=O)n1 (stereo not drawn)
- viability, T/C (compound 0.00316 µM): 104% and 103%
- viability, T/C (compound 0.01 µM): 103% and 107%
- viability, T/C (compound 0.0316 µM): 97.1% and 92.8%
- viability, T/C (compound 0.1 µM): 84.8% and 88.6%
- viability, T/C (compound 0.316 µM): 68.6% and 82.9%
- viability, T/C (compound 1 µM): 52.9% and 73.7%
